Here are results for nine molecules from patent US20260125375A1 (Pfizer Inc., priority 2022, published 2026).

One test deals with T1, CBL-B (residues 36-427) (Homo sapiens, UniProt Q13191).
T1 construct: Purified CBL-B (residues 36-427) and C-CBL (residues 46-435) proteins from baculovirus-infected insect cells; made in house; host or cells: baculovirus-infected insect cells
The test is described as follows: Ligand Displacement Assay (LDA), HTRF competitive binding against BODIPY-labeled fluorescent tracer, CBL-B. Conditions: geometric mean of the number of tests, read-out: CBL-B Ki (nM) GMean. An outline of the steps: (§1)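 First, the insect-cell-expressed protein is biotinylated at its amino-terminal AviTag with BirA and coupled to SA-Tb. Next, the tracer KD is determined for each protein. Finally, compounds are titrated three-fold in duplicate […], at 2% DMSO, and Ki is reported as a geometric mean.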
On the technique in general: In TR-FRET formats the signal depends on donor and acceptor labels being close together.

A further test deals with T2, C-CBL (residues 46-435) (Homo sapiens, UniProt P22681).
T2 construct: Purified CBL-B (residues 36-427) and C-CBL (residues 46-435) proteins from baculovirus-infected insect cells; made in house; host or cells: baculovirus-infected insect cells
T2 sequence (P22681 46-435): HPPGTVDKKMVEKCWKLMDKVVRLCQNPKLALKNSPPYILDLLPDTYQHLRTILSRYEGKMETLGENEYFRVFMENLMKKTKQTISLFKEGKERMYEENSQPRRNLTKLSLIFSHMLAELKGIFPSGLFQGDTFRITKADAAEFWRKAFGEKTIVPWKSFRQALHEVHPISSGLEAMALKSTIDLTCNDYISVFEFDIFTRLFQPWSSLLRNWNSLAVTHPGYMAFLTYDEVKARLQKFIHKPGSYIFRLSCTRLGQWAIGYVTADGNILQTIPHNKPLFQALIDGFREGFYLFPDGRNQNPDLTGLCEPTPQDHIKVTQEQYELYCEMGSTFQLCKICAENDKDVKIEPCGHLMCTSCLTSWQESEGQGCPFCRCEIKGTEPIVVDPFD
The test is described as follows: Ligand Displacement Assay (LDA), HTRF competitive binding against BODIPY-labeled fluorescent tracer, C-CBL. The following applies: geometric mean of the number of tests, read-out: C-CBL Ki (nM) GMean. An outline of the steps:
as §1

The target in the next test is T3, WT CBL-B (36-427) (Homo sapiens, UniProt Q13191).
T3 construct: N-terminal biotinylated WT CBL-B (36-427) and C-CBL (46-435) were captured on a streptavidin (SA) coated sensor chip
Put plainly: Surface Plasmon Resonance (SPR) assay, binding affinity and kinetics, CBL-B. Conditions: SPR at 10° C., biotinylated WT CBL-B (36-427) on streptavidin chip; geometric mean; read-out: CBL-B SPR Kd (nM) GMean. The method, then: (§2) Surface Plasmon Resonance (SPR) Assay
(§3) The purpose of the SPR assay is to evaluate the binding affinity and kinetics of the compound of disclosure binding to CBL-B and C-CBL.
(§4) The binding affinity and kinetics of compound binding to CBL-B and C-CBL were measured by Surface Plasmon Resonance (SPR) using either Biacore S200, 8K or 8K+ (Cytiva, Marlborough, MA) instruments. N-terminal biotinylated WT CBL-B (36-427) and C-CBL (46-435) were captured on a streptavidin (SA) coated sensor chip to achieve approximately 5000 to 6000 RUs of surface density. Un-functionalized SA surfaces with no immobilized protein served as reference for binding kinetic analysis. All the samples were prepared in buffer consisting of 10 mM HEPES, 150 mM NaCl, 0.05% Tween-20, 5% glycerol, […], 2% DMSO, pH 7.2. The same buffer was used as the running buffer during the experiments. Compound binding kinetics were measured in either multi-cycle or single-cycle kinetic format.
(§5) Multi-cycle kinetic analysis (MCK): A two-fold, 10-point serial dilution of test compounds was set-up in a 96-well microplate (Greiner; Cat #650101) with a top concentration of either 10 μM or 100 μM. Binding kinetics was measured at 10° C. by injecting serial dilution of compounds onto both reference and CBL immobilized channels at a flow rate of 100 μL/min and association time of 90 seconds. Compound dissociation was monitored for >400 seconds during each cycle. No additional regeneration was used. DMSO calibration curve was obtained before and after compound analysis by injecting 0-4% of DMSO in assay buffer. A suitable compound with known affinity and kinetics was tested once in every experiment as a positive control to assess activity of the captured proteins on the surface.
(§6) Single-cycle kinetic analysis (SCK): A 3-fold, 6-point serial dilution of compounds was set-up in a deep 96-well microplate (Greiner Bio; Cat #780201) with the highest concentration of 1 μM (concentration range: […]). Binding kinetics was measured at 10° C. by injecting serial dilutions of compounds in increasing order onto reference as well as CBL immobilized channels at a flow rate of 100 μL/min and association time of 120 seconds. Compound dissociation was monitored for >5400 seconds. Two buffer blanks were also run in a single-cycle kinetics format before the compound run for double referencing. No additional regeneration was used. DMSO calibration curve was obtained before and after compound analysis by injecting 0-4% of DMSO in the assay buffer. A suitable compound with known affinity and kinetics was tested once in every experiment as a positive control to assess activity of the captured proteins on the surface.

The next test concerns the target T4, C-CBL (46-435) (Homo sapiens, UniProt P22681).
T4 construct: N-terminal biotinylated WT CBL-B (36-427) and C-CBL (46-435) were captured on a streptavidin (SA) coated sensor chip
T4 sequence (P22681 46-435): T2 sequence (P22681 46-435)
Put plainly: Surface Plasmon Resonance (SPR) assay, binding affinity and kinetics, C-CBL. Conditions: SPR at 10° C., biotinylated C-CBL (46-435) on streptavidin chip; geometric mean; read-out: C-CBL SPR Kd (nM) GMean. The method, then:
as §2, §3, §4, §5, §6

Turning to `C[C@@H]1CN([C@@H](C)c2nc(C(F)(F)F)cc3c(-c4cccc(C5(Cc6nncn6C)COC5)c4)n[nH]c23)CCO1` (single isomer, unassigned) [Example D49], the Ki (commonly the equilibrium dissociation constant of an inhibitor or competing ligand from its target) on CBL-B (residues 36-427) was 17.8 nM; at C-CBL (residues 46-435) it was 104 nM. The Kd (in general, the free concentration of one partner at which half of the binding sites on the other are occupied at equilibrium, for simple one-to-one binding) on WT CBL-B (36-427) came out at 5.9 nM; on C-CBL (46-435), 82 nM.

On to `CC(NC1CC2(COC2)C1)c1nc(C(F)(F)F)cc2c(-c3cccc([C@H](c4nncn4C)C4CCC4)c3)n[nH]c12` (single isomer, unassigned) [Example C98], for which the Ki turned out to be 26.9 nM on CBL-B (residues 36-427) and 109 nM at C-CBL (residues 46-435). Further, the values for the Kd at WT CBL-B (36-427) and on C-CBL (46-435) were 11.3 nM and 205 nM, respectively.

`C[C@H](c1nc(C(F)(F)F)cc2c(-c3cccc(C4(Cc5nncn5C)COC4)c3)n[nH]c12)N1CCNCC1` (single isomer, unassigned) [Example D54]: the inhibition constant Ki amounted to 20.9 nM at CBL-B (residues 36-427) and 80 nM on C-CBL (residues 46-435). In addition, the Kd was 8.2 nM at WT CBL-B (36-427) and 61.7 nM at C-CBL (46-435).

As for `CN(C)Cc1nc(C(F)(F)F)cc2c(-c3cccc([C@H](c4nncn4C)C4CCC4)c3)n[nH]c12` [Example D82], the Ki on CBL-B (residues 36-427) was determined as 32.5 nM; on C-CBL (residues 46-435) it was 258 nM. Besides, the Kd on WT CBL-B (36-427) worked out at 8.7 nM; at C-CBL (46-435) it was 213 nM.

In the case of `Cn1cnnc1CC1(c2cccc(-c3n[nH]c4c(CN5C[C@@H](F)[C@@H](F)C5)nc(C(F)(F)F)cc34)c2)COC1` [Example C67, 7-{[(3R,4S)-3,4-difluoropyrrolidin-1-yl]methyl}-3-(3-{3-[(4-methyl-4H-1,2,4-triazol-3-yl)methyl]oxetan-3-yl}phenyl)-5-(trifluoromethyl)-1H-pyrazolo[3,4-c]pyridine], the values for the Ki at CBL-B (residues 36-427) and on C-CBL (residues 46-435) were 12.6 nM and 72.1 nM, respectively. For the same molecule, the values for the dissociation constant (Kd) at WT CBL-B (36-427) and on C-CBL (46-435) were 4.4 nM and 51 nM, respectively.

With `C[C@H](Cc1nncn1C)c1cccc(-c2n[nH]c3cnc(C(F)(F)F)cc23)c1` [Example N1, 3-{3-[(2R)-1-(4-methyl-4H-1,2,4-triazol-3-yl)propan-2-yl]phenyl}-5-(trifluoromethyl)-1H-pyrazolo[3,4-c]pyridine], the inhibition constant (Ki) at CBL-B (residues 36-427) amounted to 70 nM; at C-CBL (residues 46-435), 249 nM. In addition, the dissociation constant (Kd) on WT CBL-B (36-427) came to 35.8 nM; at C-CBL (46-435), 275 nM.

Consider `Cn1cnnc1[C@@H](c1cccc(-c2n[nH]c3c(CN[C@@H]4CCC[C@H]4O)nc(C(F)(F)F)cc23)c1)C1CCC1` [Example C121, (1R,2R)-2-({[3-{3-[(R)-cyclobutyl(4-methyl-4H-1,2,4-triazol-3-yl)methyl]phenyl}-5-(trifluoromethyl)-1H-pyrazolo[3,4-c]pyridin-7-yl]methyl}amino)cyclopentan-1-ol], for which the inhibition constant (Ki) came to 18.9 nM on CBL-B (residues 36-427) and 111 nM on C-CBL (residues 46-435). In addition, the dissociation constant Kd at WT CBL-B (36-427) stood at 3.3 nM; on C-CBL (46-435), 113 nM.

For `Cn1cnnc1CC1(c2cccc(-c3n[nH]c4c(CN5CC[C@@H](F)C5)nc(C(F)(F)F)cc34)c2)COC1` [Example C71, 7-{[(3R)-3-fluoropyrrolidin-1-yl]methyl}-3-(3-{3-[(4-methyl-4H-1,2,4-triazol-3-yl)methyl]oxetan-3-yl}phenyl)-5-(trifluoromethyl)-1H-pyrazolo[3,4-c]pyridine], the inhibitory constant (Ki) on CBL-B (residues 36-427) was 25.5 nM; at C-CBL (residues 46-435) it was 124 nM. In addition, the Kd amounted to 10.8 nM on WT CBL-B (36-427) and 108 nM at C-CBL (46-435).

As for `CNCc1nc(C(F)(F)F)cc2c(-c3cccc(C4(Cc5nncn5C)COC4)c3)n[nH]c12` [Example C52, N-methyl-1-[3-(3-{3-[(4-methyl-4H-1,2,4-triazol-3-yl)methyl]oxetan-3-yl}phenyl)-5-(trifluoromethyl)-1H-pyrazolo[3,4-c]pyridin-7-yl]methanamine], the Ki on CBL-B (residues 36-427) turned out to be 32.9 nM; on C-CBL (residues 46-435) it was 134 nM. In addition, the dissociation constant (Kd) at WT CBL-B (36-427) came to 9.3 nM; at C-CBL (46-435) it was 124 nM.
